The values below come from ChEMBL document CHEMBL1131875, “Selective inhibition of low affinity IgE receptor (CD23) processing: P1' bicyclomethyl substituents” (Bioorg Med Chem Lett, 1999).

The first test has as its target T1, Interstitial collagenase (Homo sapiens, UniProt P03956).
T1 sequence (P03956 whole entry): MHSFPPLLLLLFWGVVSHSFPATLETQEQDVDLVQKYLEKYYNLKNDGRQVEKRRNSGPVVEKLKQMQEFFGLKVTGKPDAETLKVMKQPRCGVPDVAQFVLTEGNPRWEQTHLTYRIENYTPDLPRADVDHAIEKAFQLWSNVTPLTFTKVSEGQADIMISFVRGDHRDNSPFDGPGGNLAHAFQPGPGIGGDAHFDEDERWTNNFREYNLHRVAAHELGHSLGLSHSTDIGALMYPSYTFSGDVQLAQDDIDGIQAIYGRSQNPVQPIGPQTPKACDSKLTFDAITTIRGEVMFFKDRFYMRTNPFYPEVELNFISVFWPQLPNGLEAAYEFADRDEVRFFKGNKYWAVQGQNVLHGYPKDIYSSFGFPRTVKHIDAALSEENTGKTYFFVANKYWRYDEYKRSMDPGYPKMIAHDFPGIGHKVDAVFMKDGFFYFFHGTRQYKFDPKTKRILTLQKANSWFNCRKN
Description: Inhibitory activity against matrix metalloprotease (MMP-1).
On to `NC(=O)[C@H](Cc1ccccc1)NC(=O)[C@H](Cc1cc2ccccc2s1)[C@H](O)C(=O)NO`, for which the IC50 (in general, the concentration that gives 50% inhibition) amounted to 140 nM. Still for that read-out and setting: under `CC(C)(C)[C@H](NC(=O)C(C[C@@H]1CCc2ccccc2C1)[C@H](O)C(=O)NO)C(N)=O` (stereo not given in full) stands 1800 nM. The same measure, in the same setting: under `CC(C)(C)[C@H](NC(=O)C(Cc1cnc2ccccc2c1)C(O)C(=O)NO)C(N)=O` (single isomer, unassigned) stands 5000 nM; under `CC(C)(C)[C@H](NC(=O)C(C[C@H]1CCc2ccccc2C1)[C@H](O)C(=O)NO)C(N)=O` (stereo not given in full), 800 nM. Same read-out and setting: under `NC(=O)[C@H](Cc1ccccc1)NC(=O)C(Cc1ccc2ccc(O)cc2c1)C(O)C(=O)NO` (single isomer, unassigned) stands over 10000 nM; under `CC(C)(C)[C@H](NC(=O)[C@H](Cc1ccc2ccc(F)cc2c1)[C@H](O)C(=O)NO)C(N)=O`, over 10000 nM; under `CNC(=O)[C@H](Cc1ccccc1)NC(=O)[C@H](Cc1cc2ccccc2o1)[C@H](O)C(=O)NO`, under 100 nM. As for `NC(=O)[C@H](Cc1ccccc1)NC(=O)[C@H](Cc1nc2ccccc2s1)[C@H](O)C(=O)NO`, half-maximal inhibition (IC50) required 500 nM.

Take `NC(=O)[C@H](Cc1ccccc1)NC(=O)C(Cc1ccc2ccccc2c1)C(O)C(=O)NO` (single isomer, unassigned): the half-inhibitory concentration (IC50) is over 10000 nM. The molecule `CNC(=O)[C@@H](NC(=O)C(Cc1ccc2ccccc2c1)C(O)C(=O)NO)C(C)(C)C` (single isomer, unassigned) yielded an IC50 of over 1000 nM. The same measure, in the same setting: under `CC(C)(C)[C@H](NC(=O)C(Cc1ccc2ccccc2c1)C(O)C(=O)NO)C(N)=O` (single isomer, unassigned) stands over 10000 nM; under `NC(=O)[C@H](Cc1ccccc1)NC(=O)[C@H](Cc1ccc2ccc(F)cc2c1)[C@H](O)C(=O)NO`, over 10000 nM; under `NC(=O)[C@H](Cc1ccccc1)NC(=O)[C@H](Cc1ccc2cc(F)ccc2c1)[C@H](O)C(=O)NO`, over 10000 nM. The same measure, in the same setting: the value for `CNC(=O)[C@H](Cc1ccccc1)NC(=O)C(Cc1ccc2ccccc2c1)C(O)C(=O)NO` (single isomer, unassigned) was over 1000 nM; that for `O=C(C[C@@H](Cc1ccc2ccccc2c1)C(=O)N[C@@H](Cc1ccccc1)C(=O)NCc1ccccc1)NO` was over 1000 nM.

For another test, the target named is T2, Stromelysin-1 (Homo sapiens, UniProt P08254). Description: Inhibition of matrix metalloprotease (MMP-3).
Target sequence in this assay (P08254 whole entry): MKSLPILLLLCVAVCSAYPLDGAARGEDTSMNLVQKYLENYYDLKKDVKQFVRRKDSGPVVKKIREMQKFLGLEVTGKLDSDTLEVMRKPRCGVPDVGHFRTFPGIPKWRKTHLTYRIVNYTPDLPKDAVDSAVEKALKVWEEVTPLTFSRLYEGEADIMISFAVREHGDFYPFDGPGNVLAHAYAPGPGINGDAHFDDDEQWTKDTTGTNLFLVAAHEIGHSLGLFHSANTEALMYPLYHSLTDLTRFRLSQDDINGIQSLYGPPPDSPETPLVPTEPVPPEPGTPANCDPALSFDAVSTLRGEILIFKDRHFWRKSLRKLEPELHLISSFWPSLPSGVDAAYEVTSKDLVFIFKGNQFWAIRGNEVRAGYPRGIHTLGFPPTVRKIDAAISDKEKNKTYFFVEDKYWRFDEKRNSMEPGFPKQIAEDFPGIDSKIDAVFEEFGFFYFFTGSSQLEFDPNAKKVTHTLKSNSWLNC
In turn, `CC(C)(C)[C@H](NC(=O)C(Cc1cnc2ccccc2c1)C(O)C(=O)NO)C(N)=O` (single isomer, unassigned) had an IC50 of 3000 nM. Still for that read-out and setting: under `CC(C)(C)[C@H](NC(=O)C(C[C@H]1CCc2ccccc2C1)[C@H](O)C(=O)NO)C(N)=O` (stereo not given in full) stands 230 nM; under `CC(C)(C)[C@H](NC(=O)C(Cc1ccc2ccccc2c1)C(O)C(=O)NO)C(N)=O` (single isomer, unassigned), over 10000 nM; under `NC(=O)[C@H](Cc1ccccc1)NC(=O)[C@H](Cc1ccc2cc(F)ccc2c1)[C@H](O)C(=O)NO`, 3000 nM.

In another test the target is T2, Stromelysin-1. Description: Inhibition of matrix metalloprotease (MMP-3) at 10 uM.
Target sequence in this assay (P08254 100-477 limits assumed): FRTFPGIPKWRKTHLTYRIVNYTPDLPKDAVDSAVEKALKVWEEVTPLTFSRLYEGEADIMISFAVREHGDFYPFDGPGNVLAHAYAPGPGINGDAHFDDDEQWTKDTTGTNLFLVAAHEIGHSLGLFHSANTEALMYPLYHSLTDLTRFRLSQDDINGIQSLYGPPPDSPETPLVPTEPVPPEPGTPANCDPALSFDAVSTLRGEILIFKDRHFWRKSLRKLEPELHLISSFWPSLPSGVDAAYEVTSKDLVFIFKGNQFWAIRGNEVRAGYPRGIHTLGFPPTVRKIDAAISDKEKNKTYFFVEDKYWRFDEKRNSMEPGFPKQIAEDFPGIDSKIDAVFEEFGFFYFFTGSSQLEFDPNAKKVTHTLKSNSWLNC
Take `CC(C)(C)[C@H](NC(=O)C(C[C@@H]1CCc2ccccc2C1)[C@H](O)C(=O)NO)C(N)=O` (stereo not given in full): the inhibition (commonly how much of the control response was suppressed) was found to be 83%.

For a further test, the target named is Matrix metalloproteinase-9 (Homo sapiens, UniProt P14780). Description: Inhibitory activity against matrix metalloprotease (MMP-9).
Matrix metalloproteinase-9, sequence (P14780 whole entry): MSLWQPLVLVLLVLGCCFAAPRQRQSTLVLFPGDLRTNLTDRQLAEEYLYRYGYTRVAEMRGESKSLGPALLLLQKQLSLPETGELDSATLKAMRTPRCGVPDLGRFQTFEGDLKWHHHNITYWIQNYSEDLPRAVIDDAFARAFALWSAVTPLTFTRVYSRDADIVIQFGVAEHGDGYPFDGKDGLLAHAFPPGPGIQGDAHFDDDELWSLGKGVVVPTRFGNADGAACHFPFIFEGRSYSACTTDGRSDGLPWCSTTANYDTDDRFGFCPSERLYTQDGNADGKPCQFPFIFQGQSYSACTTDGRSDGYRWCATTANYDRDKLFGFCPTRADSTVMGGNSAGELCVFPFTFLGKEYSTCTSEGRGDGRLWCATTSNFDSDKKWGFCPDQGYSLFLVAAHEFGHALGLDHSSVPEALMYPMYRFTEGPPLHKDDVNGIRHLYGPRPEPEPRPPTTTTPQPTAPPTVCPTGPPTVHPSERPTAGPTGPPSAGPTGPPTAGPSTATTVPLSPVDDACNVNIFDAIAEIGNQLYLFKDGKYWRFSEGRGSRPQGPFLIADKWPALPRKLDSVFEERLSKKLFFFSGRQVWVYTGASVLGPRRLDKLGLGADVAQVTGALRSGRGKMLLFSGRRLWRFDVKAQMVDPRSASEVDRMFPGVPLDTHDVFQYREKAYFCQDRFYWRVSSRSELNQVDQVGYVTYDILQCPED
The molecule `CC(C)(C)[C@H](NC(=O)C(C[C@@H]1CCc2ccccc2C1)[C@H](O)C(=O)NO)C(N)=O` (stereo not given in full) came in with an IC50 of 410 nM. That is a sub-micromolar value. Still for that read-out and setting: the value for `CC(C)(C)[C@H](NC(=O)C(Cc1cnc2ccccc2c1)C(O)C(=O)NO)C(N)=O` (single isomer, unassigned) was 190 nM.

`CC(C)(C)[C@H](NC(=O)C(C[C@H]1CCc2ccccc2C1)[C@H](O)C(=O)NO)C(N)=O` (stereo not given in full) yielded an IC50 of 230 nM. This IC50 and that of the molecule before are within 1.5-fold of each other.

For the molecule `CC(C)(C)[C@H](NC(=O)C(Cc1ccc2ccccc2c1)C(O)C(=O)NO)C(N)=O` (single isomer, unassigned), the midpoint of inhibition, the IC50, lay at 640 nM. On the same count and under the same terms, under `NC(=O)[C@H](Cc1ccccc1)NC(=O)[C@H](Cc1ccc2cc(F)ccc2c1)[C@H](O)C(=O)NO` stands 850 nM.
